From patent publication US20080311103A1, “Anti-Inflammatory Peptides and Methods of Use Thereof” (YEDA RESEARCH AND DEVELOPMENT CO. LTD. at THE WEIZMANN …, priority 2004, published 2008)
Where two headings read alike, the source gives them in different places. Ends that are not written are not given here.

Tests used:
[1] = tested on: mice sensitized with oxazolone; format: in vivo, mouse; conditions: ear measured 24 hours after oxazolone challenge, BALB/c mice
Description: Groups of 5 female inbred BALB/c mice (The Jackson Laboratory, Bar Harbor, Me.) were sensitized on the shaved abdominal skin with 2% oxazolone (100 μl) dissolved in acetone/olive oil [4:1 (vol/vol)] applied topically. Delayed type hypersensitivity (DTH) was elicited 5 days later by challenging the mice with 0.5% oxazolone in acetone/olive oil (10 μl given topically to each side of the ear). A constant area of the ear was measured immediately before and 24 hours after the challenge using a Mitutoyo engineer's micrometer. The percent inhibition of DTH is calculated as follows:
% Inhibition=[1-{(treated−negative control)/(positive control−negative control)}]×100.
The positive control is the DTH reaction to oxazolone elicited in sensitized mice without treatment. The negative control is the background swelling produced by the oxazolone antigen in naïve non-sensitized mice.
Peptides Nos. 1-5 were given to the mice by mini perfusion pumps (alzet osmotic pump model 2001), which contained the indicated peptide (40 μg; 200 μl). The pumps were implanted under the mouse skin one day before oxazolone sensitization and they released the peptide in a rate of 1 μl per hour (0.2 μg/hour) for 7 days.
Peptides Nos. 6-10 were given to the mice by subcutaneously injection (1 μg or 10 μg per mouse), every day, starting at one day before oxazolone sensitization and ending at day 5 post DTH initiation.

BALB/C mice = experiment: TNBS-induced colitis model of inflammatory bowel disease (IBD); format: in vivo, mouse; conditions: 200 μg/mouse SC daily; day 7 after TNBS
Description: BALB/C mice, which were anesthetized for 5-10 min, received by intrarectal administration, 30 μl of a solution of 2,4,6-trinitrobenzene sulfonic acid (TNBS; 100 mg/kg) dissolved in 0.9% NaCl and mixed with an equal volume of ethanol (50% ethanol). Animals were killed 7 days after TNBS administration.
Wound fluid peptides were administered once daily by subcutaneous (SC) administration starting 1 day before the induction of colitis and every day for the next 7 days as follows:
Treatment with the wound fluid peptides was evaluated at day 7 by determination of macroscopic inflammation scores. The colon of each mouse was examined under a dissecting microscope to evaluate the macroscopic lesions according to the Wallace criteria. The Wallace score lists macroscopic colon lesions on a scale from 0 to 10 based on features reflecting inflammation, such as hyperemia, thickening of the bowel, and extent of ulceration (Wallace, J. L., et al. 1989, Gastroenterology, 96:29).

[2] = tested on: anti-CD3 antibody induced TNFα secretion from T cells; experiment: TNFα secretion by anti-CD3 activated T cells; format: cell-based, human; conditions: peptide 100 ng/ml; 24 hours; ELISA; FIG. 7A
Description: (§1) Human T cells were purified and maintained in culture (RPMI containing 10% FCS, 1% Pyruvate, 1% glutamine, 1% antibiotics, 7.5% CO2, humidified atmosphere) for 15 hr before they were transferred to RPMI and activated (2 hr, 37° C.) with the indicated concentrations of the peptides. The cells were then plated (1.5×10^6 cells/0.5 ml/well) in 24 wells plates (non-tissue culture grade) precoated with anti-CD3 mAb in order to stimulate the cells to secrete cytokines. After 24 hours, the supernatants were collected and their cytokine content (TNFα and IFNγ) was determined by ELISA using anti-IFNγ and anti TNFα mAb (Pharmingen; San Diego, Calif.) according to the manufacturer's instructions.

[3] = tested on: anti-CD3 antibody induced IFNγ secretion from T cells; experiment: IFNγ secretion by anti-CD3 activated T cells; format: cell-based, human; parameters: concentration or dose not given beside the values; conditions: 24 hours; ELISA; FIG. 7B
Description: as §1

NF-κB = experiment: Nuclear translocation of NF-κB in T cells (Western blot); format: cell-based; conditions: peptide 100 ng/ml for 2 hours, then anti-CD3 mAb 24 hr; human T cells
Text: To address the modulatory role of the wound fluid peptides on the signal transduction cascade leading to regulation of T-cell secretion of TNF-α(and IFN-γ, the nuclear translocation of NF-κB was detected by probing nuclear and cytoplasmic T-cell extracts using mAb specific for the p65 subunit of NF-κB. The nuclear protein Lamin B was used as continuatively expressed control protein for the quantification of protein amounts.
Human T cells. T cells were purified from the peripheral blood of healthy human donors (Blood Bank; Tel-Hashomer, Israel). The whole blood was incubated (20 min, 22° C.) with RosetteSep™ human T-cell enrichment cocktail (StemCell Technologies, Vancouver, BC, Canada). The remaining unsedimented cells were then loaded onto Lymphocyte Separation Medium (ICN Biomedicals; Belgium), isolated by density centrifugation, and washed with PBS. The purified cells (>95% CD3^+ T cells) so obtained were cultured in RPMI containing antibiotics and 10% heat-inactivated FCS. Western blot analysis of T-cell nuclear extracts. Purified T cells (5×10^6) were preincubated with the peptides (100 ng/ml) for 2 hours (37° C. in a 7% CO2, humidified atmosphere). The cells were then replated in 24-well plates pre-coated with anti-CD3 mAb for 24 hr (37° C. in a 7% CO2, humidified atmosphere). T cells were lysed in 10 mM HEPES, 1.5 mM MgCl2, 1 mM dithiothreitol (DTT), 1 mM PMSF, 0.5% Nonidet P-40. The lysates were incubated on ice for 10 min and centrifuged at 2000 rpm for 10 min at 4° C. The supernatants (cytoplasmic extracts) were transferred and the pellet (nuclei) was suspended in buffer containing 30 mM HEPES, 450 mM NaCl, 25% Glycerol, 0.5 mM EDTA, 6 mM DTT, 12 mM MgCl2 1 mM PMSF, 10 μg/ml leupeptin, 10 μg/ml pepstatin, 1% phosphatase inhibitor cocktail, and the suspension was incubated on ice for 30 min. The lysates were cleared by centrifugation (30 min, 14×10^3 rpm, 4° C.), and the resulting supernatants analyzed for protein content. […]

T cells = experiment: Chemotaxis assay: T cell migration toward SDF-1α; format: cell-based; conditions: SDF-1α 250 ng/ml, 3 hr
Description: The migration of ^51-[Cr]-labeled T cells was examined in […] Transwell chemotaxis apparatus (6.5-mm diameter; Corning, N.Y.), consisting of two compartments separated by polycarbonate filters (5 μm pore size) pretreated (1 hr, 37° C.) with FN (25 μg/ml). ^51-[Cr]-labeled T cells (2×10^5 in 100 μl of RPMI containing 0.1% BSA and antibiotics), which were pre-incubated with the indicated concentrations of peptides (30 min, 37° C.), were added to the upper chambers. The bottom chambers contained 0.6 ml of the same media, with or without human Stromal cell-Derived Factor-1α (SDF-1α; 250 ng/ml). After incubation at 37° C. for 3 hr (7.5% CO2-humidified atmosphere), cells that had transmigrated into the lower wells were collected, centrifuged, and lysed (in 100 μl of distilled water containing 1 M NaOH and 0.1% Triton X-100), and the radioactivity in the resulting supernatants was determined with a γ-counter. The percentage (±SD) of cell migration was calculated as the radioactivity counts in the lysates of the lower chambers (representative of the migrating cells) divided by the total counts (representative of 2×10^5 cells).

Jurkat and THP-1 cells = experiment: TNFα secretion by PMA/PHA induced Jurkat and THP-1 cells; format: cell-based, human; conditions: 48 hours, ELISA
Description: Jurkat cells human T cell lymphoma line) (2×10^6 cells/ml) cultured in RPMI-1640 supplemented with 10% FCS were activated with PMA (50 ng/ml) and phytohaemagglutinin PHA (4 µg/ml) for 6 hours at 37° C. (7.5% CO2-humidified atmosphere). Thereafter, the cells were washed, plated on 24-well plates (10^6 cells/well in 0.5 ml), and incubated (1 hour at 37° C., 7.5% CO2-humidified atmosphere) with the indicated concentrations of peptides 1-5. Following the incubation, THP-1 cells (human monocytic cell line derived from a patient with acute monocytic leukaemia; 1.25×10^5 cells/0.5 ml/well) were added to the wells. After 48 hours, the supernatants were collected and their TNF[…] content was determined by ELISA using anti TNF[…] mAb (Pharmingen; San Diego, Calif.) according to the manufacturer's instructions.

[4] = Stability to serum proteases (HPLC); format: in vitro ADME, mouse
Description: To test the stability of peptide No. 5 to blood proteases, 100 μl of a 1 mg/ml solution of the peptide were incubated at 37° C. with 40 μl of mouse serum. Samples withdrawn after 0, 2, 4 or 24 hours were precipitated with 200 μl of methanol and centrifuged for 1 min at 10,000×g. The crude solution was analyzed by HPLC equipped with a 220 nm detector. The crude solution was diluted in 0.1% trifluoroacetic acid (TFA), applied on a RP-18^e column (Chromolith) (MERCK, Darmstadt, Germany), and the HPLC conditions were as follows: mobile phase A, TFA (0.1%) in water; mobile phase B: TFA (0.1%) in acetonitrile (75%). The flow rate was 3 ml/min and the gradient was 0 to 100% B for the first 10 min, 100% B for additional 5 min, and for the last 5 min the gradient was 100% B to 0.

[5] = FIG. 1, peptides by implanted osmotic pump, 0.2 μg/hour for 7 days
[6] = FIG. 2, peptides subcutaneously 1 μg or 10 μg per mouse every day

Compound	inhibition of DTH response [1, 5]	inhibition of DTH response [1, 6]	inhibition of anti-CD3 antibody induced TNFα secretion from T cells [2] [%]	inhibition of anti-CD3 antibody induced IFNγ secretion from T cells [3] [%]	other results
C[C@@H]1C[C@H]2[C@@H]3CCC4=CC(=O)C=C[C@]4(C)[C@@]3(F)[C@@H](O)C[C@]2(C)[C@@]1(O)C(=O)CO [Dexamethasone, reference compound]	~70%	~70%			Wallace score (macroscopic inflammation score, scale 0 to 10) (BALB/C mice): 2.9±1
ALTDMPQM [compound 7, residues 250-257 of Fibrinogen Aα; identified in wound fluids, then synthesized]		hardly inhibited	30	30	
DHSKNPVGV [compound 8, residues 320-328 of ADAM 8; identified in wound fluids, then synthesized]		60%	30	15	
ELERPGGNEI [compound 6, residues 260-269 of Fibrinogen Aα; identified in wound fluids, then synthesized]		50%	40	40	NF-κB translocation to the nucleus (NF-κB): significant down-regulation
MIESSMN [compound 1, residues 827-833 of LRP5; identified in wound fluids, then synthesized]	hardly inhibited				inhibition of T cell transmigration toward SDF-1α (T cells; concentration range 10-1000 ng/ml): did not show a significant inhibition; inhibition of TNFα secretion by Jurkat and THP-1 cells (Jurkat and THP-1 cells; concentration range 1-1000 ng/ml): did not exert a significant inhibition
NDADDST [compound 9, residues 302-308 of Cadherin 4; identified in wound fluids, then synthesized]		hardly inhibited	~50	40	
NPDESSKPNMI [peptide No. 5, NPDESSKPNMI]					% Area (HPLC peak of peptide) ([4]; Test 1, 0 hours incubation with mouse serum): 74.23%; % Area (HPLC peak of peptide) ([4]; Test 1, 2 hours incubation at 37° C. with mouse serum): 75.08%; % Area (HPLC peak of peptide) ([4]; Test 1, 4 hours incubation at 37° C. with mouse serum): 68.94%; % Area (HPLC peak of peptide) ([4]; Test 1, 24 hours incubation at 37° C. with mouse serum): 68.69%; % Area (HPLC peak of peptide) ([4]; Test 2, 0 hours incubation with mouse serum): 90.62%; % Area (HPLC peak of peptide) ([4]; Test 2, 2 hours incubation at 37° C. with mouse serum): 87.32%; resistance to serum proteases ([4]; mouse serum, up to 24 hours): highly resistant; metabolised at 2 h, 0.71 mg/ml ([4]; mouse, mouse serum, after 2 hours (test 2), read-out: peptide degraded in the presence of mouse serum): ~3.5%; metabolised at 4 h, 0.71 mg/ml ([4]; mouse, mouse serum, after 4 hours (test 1), read-out: peptide degraded in the presence of mouse serum): 7.5%; metabolised at 24 h, 0.71 mg/ml ([4]; mouse, mouse serum, after 24 hours (test 1), read-out: peptide degraded in the presence of mouse serum): 7.5%; remaining at 24 h, 0.71 mg/ml ([4]; mouse, mouse serum, after 24 hours of exposure to serum proteases, read-out: peptide still present as an intact peptide): > 90%
NQGEESAEI [compound 10, residues 470-478 of Calcitonin receptor; identified in wound fluids, then synthesized]		30%	~70	75	
TDYGKDLMEKV [peptide No. 4, residues 42-52 of Apo A-II; identified in wound fluids, then synthesized]	hardly inhibited		~50	~50	inhibition of T cell migration toward SDF-1α (T cells; peptide 1000 ng/ml): 30%; inhibition of TNFα secretion by Jurkat and THP-1 cells compared to PMA/PHA alone (Jurkat and THP-1 cells; peptide 1 μg/ml): 40%
